Measurements from US6395885B1, “Use of lithium salts of anionic dyes to enhance their light-fastness” (Avecia Limited, priority 1998, dated 2002).

Test: Light-fastness of ink jet prints on Xerox Acid paper faded in a weatherometer (colour difference ΔE)
Format: physicochemical
Procedure: Each ink was prepared by dissolving the Dye shown in the second column of Table 1 (0.35 g) in water (8.45 g) by adding ammonia and adjusting the pH to 9.5. 2-pyrrolidone (0.5 g), thiodiglycol (0.5 g) and Surfynol 465 (0.2 g) were then added and the mixture was stirred at ambient temperature. The resulting solution was filtered through a 0.45 μm filter to give the ink.
Each ink shown in Table 1 was loaded into a HP 560 ink jet printer and was applied to Xerox Acid paper using the ink jet printer. When the resulting prints had dried a portion of the print was mounted, half covered, and faded in an Atlas Ci35a weatherometer.
The light-fastness of the prints was assessed by measuring the colour difference (ΔE) between the faded and unfaded portions of the print using an X-Rite 939 spectrodensitometer. The time shown in the column marked ΔE in Table 1 refers to the number of hours the print was faded for in the weatherometer.
A low ΔE value indicates a small colour change after fading in the weatherometer and therefore a high light-fastness.
The light-fastness of Dyes (A) and (B) and the individual sodium and lithium salts thereof were measured as described in Example 1; namely by ink jet printing an ink containing the each dye onto Xerox Acid paper and fading the prints using an Xrite Weatherometer.

## COc1cc(N=Nc2cccc(S(=O)(=O)O)c2)ccc1NC(=O)Nc1ccc(N=Nc2cccc(S(=O)(=O)O)c2)cc1OC [Comparative (3), C.I. Direct Yellow 132]
Ink with 3.5 parts dye printed on Xerox Acid paper, faded 50 hours in Atlas Ci35a weatherometer, low ΔE = high light-fastness
  ΔE (50 hours): 10.77
Measured as in Example 1 (ΔE), ink jet print on Xerox Acid paper, 50 hours of fading
  Light-Fastness (after 50 hours): 11
